Measurements: patent US11058680B2, “Combinations of opioid/TLR4 antagonists and acetaminophen for use in the treatment of emotional pain and insomnia” (Allodynic Threapeutics, LLC, priority 2016, dated 2021)

System: migraine attacks
Experiment: Naltrexone/acetaminophen open-label pilot study, acute treatment of migraine: headache pain (4-point scale; relief score ≤1, pain-free score = 0), associated symptoms, additional meds
Format: in vivo, human
Procedure: Sixteen unique patients were enrolled in an open phase pilot study for the acute treatment of migraine attacks, insomnia, and emotional pain. Of the sixteen patients, eleven were evaluated for one migraine attack, one for two attacks, two for four attacks, one for six attacks, and one for fourteen attacks. A total of forty-one […] treatments were evaluated. Patients received a single dose of one of the following treatment options:
The majority of the patients remained in the clinic for observation for 2 hours after dosing. They completed headache diary assessments immediately before and after dosing at time points: 7, 15, and 30 minutes; and 1, 1.5, 2, 3, 6, 12, 24, and 48 hours. Headache pain was assessed on a 4-point scale (0=none; 1=mild; 2=moderate; 3=severe). The assessment of photophobia, phonophobia, nausea, and neck/shoulder pain was assessed as present or absent. The assessment of emotional pain was recorded on a 4-point scale (0=none, 1=mild, 2=moderate, 3=severe). The assessment of difficulty sleeping or falling asleep (insomnia) was assessed on a 4-point scale (0=none, 1=mild, 2=moderate, 3=severe) at baseline, for the night before treatment and for the following nights at 24, and 48 hours. Patients recorded side effects severity at each time point. Patients recorded the time of the first rescue medication dose and all additional headache medications used within 48 hours. Patients were required to stay awake to record their assessments in the first 2 hours, sleeping was permitted thereafter. While asleep, assessments were completed according to patients' best estimation. For data analysis, it was assumed that a migraine attack is a unique patient. Patients were asked to specify (yes or no answer) to whether they experienced emotional pain symptoms such as: hurt feelings, sadness, fear, or anger. Patients who replied positively to having emotional pain were asked to specify the cause into one of the following options: relationship, work/school, money/debt, health, or loss/grief.

[1] = 7 min, NTX/APAP 2.25 mg/325 mg, NTX 2.25 mg
[2] = 7 min, NTX/APAP 3.25 mg/325 mg, NTX 3.25 mg
[3] = 7 min, NTX/APAP 5 mg/325 mg, NTX 5 mg
[4] = 7 min, naltrexone/acetaminophen 2.25 mg/325 mg (N=15), naltrexone 2.25 mg (N=3)
[5] = 15 min, NTX/APAP 2.25 mg/325 mg, NTX 2.25 mg
[6] = 15 min, NTX/APAP 3.25 mg/325 mg, NTX 3.25 mg
[7] = 15 min, NTX/APAP 5 mg/325 mg, NTX 5 mg
[8] = 15 min, NTX/APAP […]325 mg, NTX 1.5 mg
[9] = 15 min, naltrexone/acetaminophen 2.25 mg/325 mg (N=21), naltrexone 2.25 mg (N=9)
[10] = 30 min, NTX/APAP 2.25 mg/325 mg, NTX 2.25 mg
[11] = 30 min, NTX/APAP 3.25 mg/325 mg, NTX 3.25 mg
[12] = 30 min, NTX/APAP 5 mg/325 mg, NTX 5 mg
[13] = 30 min, NTX/APAP […]325 mg, NTX 1.5 mg
[14] = 30 min, naltrexone/acetaminophen 2.25 mg/325 mg (N=21), naltrexone 2.25 mg (N=9)
[15] = 1 h, NTX/APAP 2.25 mg/325 mg, NTX 2.25 mg
[16] = 1 h, NTX/APAP 3.25 mg/325 mg, NTX 3.25 mg

Structure (SMILES): O=C1CC[C@@]2(O)[C@H]3Cc4ccc(O)c5c4[C@@]2(CCN3CC2CC2)[C@H]1O5 [naltrexone]
- Additional meds taken [1]: 0 (0)
- Headache pain-free [1]: 0 (0) n (%)
- Headache pain-relief [1]: 0 (0) n (%)
- Most bothersome symptom free [1]: 0 (0) n (%)
- Nausea-free [1]: 0 (0) n (%)
- Neck/shoulder pain-free [1]: 2 (67) n (%)
- Phonophobia-free [1]: 2 (67) n (%)
- Photophobia-free [1]: 0 (0) n (%)
- Additional meds taken [2]: 0
- Headache pain-free [2]: 0 n (%)
- Headache pain-relief [2]: 0 n (%)
- Most bothersome symptom free [2]: 0 n (%)
- Nausea-free [2]: 2 n (%)
- Neck/shoulder pain-free [2]: 0 n (%)
- Phonophobia-free [2]: 0 n (%)
- Photophobia-free [2]: 1 n (%)
- Additional meds taken [3]: 0
- Headache pain-free [3]: 0 n (%)
- Headache pain-relief [3]: 0 n (%)
- Most bothersome symptom free [3]: 0 n (%)
- Nausea-free [3]: 0 n (%)
- Neck/shoulder pain-free [3]: 0 n (%)
- Phonophobia-free [3]: 0 n (%)
- Photophobia-free [3]: 0 n (%)
- Additional meds taken (7 min, all doses combined): 0 (0)
- Headache pain-free (7 min, all doses combined): 0 (0) n (%)
- Headache pain-relief (7 min, all doses combined): 0 (0) n (%)
- Most bothersome symptom free (7 min, all doses combined): 0 (0) n (%)
- Nausea-free (7 min, all doses combined): 2 (33) n (%)
- Neck/shoulder pain-free (7 min, all doses combined): 2 (33) n (%)
- Phonophobia-free (7 min, all doses combined): 2 (33) n (%)
- Photophobia-free (7 min, all doses combined): 1 (16) n (%)
- Headache pain-free [4]: 0%
- Most bothersome symptom-free [4]: 0%
- Additional meds taken [5]: 0 (0)
- Headache pain-free [5]: 0 (0) n (%)
- Headache pain-relief [5]: 4 (44) n (%)
- Most bothersome symptom free [5]: 1 (11) n (%)
- Nausea-free [5]: 3 (33) n (%)
- Neck/shoulder pain-free [5]: 4 (44) n (%)
- Phonophobia-free [5]: 4 (44) n (%)
- Photophobia-free [5]: 3 (33) n (%)
- Additional meds taken [6]: 0
- Headache pain-free [6]: 0 n (%)
- Headache pain-relief [6]: 2 n (%)
- Most bothersome symptom free [6]: 0 n (%)
- Nausea-free [6]: 3 n (%)
- Neck/shoulder pain-free [6]: 0 n (%)
- Phonophobia-free [6]: 0 n (%)
- Photophobia-free [6]: 1 n (%)
- Additional meds taken [7]: 1
- Headache pain-free [7]: 0 n (%)
- Headache pain-relief [7]: 0 n (%)
- Most bothersome symptom free [7]: 0 n (%)
- Nausea-free [7]: 0 n (%)
- Neck/shoulder pain-free [7]: 0 n (%)
- Phonophobia-free [7]: 0 n (%)
- Photophobia-free [7]: 0 n (%)
- Additional meds taken [8]: 0
- Headache pain-free [8]: 0 n (%)
- Headache pain-relief [8]: 1 n (%)
- Most bothersome symptom free [8]: 0 n (%)
- Nausea-free [8]: 2 n (%)
- Neck/shoulder pain-free [8]: 1 n (%)
- Phonophobia-free [8]: 0 n (%)
- Photophobia-free [8]: 0 n (%)
- Additional meds taken (15 min, all doses combined): 0 (0)
- Headache pain-free (15 min, all doses combined): 0 (0) n (%)
- Headache pain-relief (15 min, all doses combined): 7 (44) n (%)
- Most bothersome symptom free (15 min, all doses combined): 1 (6) n (%)
- Nausea-free (15 min, all doses combined): 8 (50) n (%)
- Neck/shoulder pain-free (15 min, all doses combined): 5 (31) n (%)
- Phonophobia-free (15 min, all doses combined): 4 (25) n (%)
- Photophobia-free (15 min, all doses combined): 4 (25) n (%)
- Headache pain-free [9]: 0%
- Headache pain-relief [9]: 44%
- Most bothersome symptom-free [9]: 11%
- Additional meds taken [10]: 0
- Headache pain-free [10]: 2 (22) n (%)
- Headache pain-relief [10]: 7 (78) n (%)
- Most bothersome symptom free [10]: 6 (67) n (%)
- Nausea-free [10]: 8 (88) n (%)
- Neck/shoulder pain-free [10]: 6 (67) n (%)
- Phonophobia-free [10]: 7 (78) n (%)
- Photophobia-free [10]: 5 (56) n (%)
- Additional meds taken [11]: 0 (0)
- Headache pain-free [11]: 0 (0) n (%)
- Headache pain-relief [11]: 2 (66) n (%)
- Most bothersome symptom free [11]: 0 (0) n (%)
- Nausea-free [11]: 2 (66) n (%)
- Neck/shoulder pain-free [11]: 0 (0) n (%)
- Phonophobia-free [11]: 0 (0) n (%)
- Photophobia-free [11]: 1 (33) n (%)
- Additional meds taken [12]: 0 (0)
- Headache pain-free [12]: 0 (0) n (%)
- Headache pain-relief [12]: 0 (0) n (%)
- Most bothersome symptom free [12]: 0 (0) n (%)
- Nausea-free [12]: 0 (0) n (%)
- Neck/shoulder pain-free [12]: 1 (100) n (%)
- Phonophobia-free [12]: 1 (100) n (%)
- Photophobia-free [12]: 1 (100) n (%)
- Additional meds taken [13]: 0 (0)
- Headache pain-free [13]: 0 (0) n (%)
- Headache pain-relief [13]: 2 (66) n (%)
- Most bothersome symptom free [13]: 0 (0) n (%)
- Nausea-free [13]: 2 (66) n (%)
- Neck/shoulder pain-free [13]: 1 (33) n (%)
- Phonophobia-free [13]: 0 (0) n (%)
- Photophobia-free [13]: 0 (0) n (%)
- Additional meds taken (30 min, all doses combined): 0 (0)
- Headache pain-free (30 min, all doses combined): 2 (13) n (%)
- Headache pain-relief (30 min, all doses combined): 10 (63) n (%)
- Most bothersome symptom free (30 min, all doses combined): 6 (38) n (%)
- Nausea-free (30 min, all doses combined): 12 (75) n (%)
- Neck/shoulder pain-free (30 min, all doses combined): 8 (50) n (%)
- Phonophobia-free (30 min, all doses combined): 8 (50) n (%)
- Photophobia-free (30 min, all doses combined): 7 (48) n (%)
- Headache pain-free (30 min, naltrexone 1.5 mg (N=3)): 0%
- Headache pain-free [14]: 22%
- Headache pain-relief [14]: 78%
- Most bothersome symptom-free [14]: 67%
- Headache pain-free (30 min, naltrexone/acetaminophen 3.25 mg/325 mg (N=3), naltrexone 3.25 mg (N=3)): 0%
- Additional meds taken [15]: 0 (0)
- Headache pain-free [15]: 4 (44) n (%)
- Headache pain-relief [15]: 8 (88) n (%)
- Most bothersome symptom free [15]: 7 (77) n (%)
- Nausea-free [15]: 9 (100) n (%)
- Neck/shoulder pain-free [15]: 6 (66) n (%)
- Phonophobia-free [15]: 8 (88) n (%)
- Photophobia-free [15]: 6 (66) n (%)
- Additional meds taken [16]: 0
- Headache pain-free [16]: 3 (100) n (%)
